Experimental findings from patent US8008494B2, “Soluble amide and ester pyrazinoylguanidine sodium channel blockers” (Parion Sciences, Inc., priority 2004, dated 2011) are described below.

Structures are written as SMILES. Structures can show the parent of a compound that is named as a salt. Where two headings read alike, the source gives them in different places. Some results are limits rather than exact numbers.

The nature of series [1]: Solubility of compounds in sodium chloride solution. The class given is physicochemical. The note with it: saline or isotonic, thermodynamic from solid. On the procedure:
Compound solubility was measured in water, 0.12 or 0.9% sodium chloride solution at ambient temperature for up to 10 days. Using a UV/Visable Spectrophotometer and applying Beer's Law with the calculated extinction coeffecient of amiloride (18.6 mM, absorbance values at 362 nm taken from D. Mazzo 1986) the free base concentration in solution was calculated at specified time points. All samples were stored for the duration of the experiment in a single/closure system consisting of glass vials with a stopper-top closure. The vials were maintained at ambient temperature, in the dark, and in the upright position. Compound stability was measured using reverse phase high performance liquid chromatography on the final filtered pulled sample (day 10).
Table 2 gives the solubility in saline of selected amide bis methane sulfonic acid salts and compares them to the mono addition methane sulfonic acid salt of PSA 9714.

Series [2] has as its target T1, Epithelial Sodium Channel (ENaC) (Canis lupus familiaris, UniProt A0A8I3MKE6+A0A8I3Q679+Q95165).
T1 construct: endogenous in cells; host or cells: primary canine bronchial epithelial cells from freshly excised airways, cultured at air-liquid interface and mounted in Ussing chambers
T1 sequence (A0A8I3Q679 1-649): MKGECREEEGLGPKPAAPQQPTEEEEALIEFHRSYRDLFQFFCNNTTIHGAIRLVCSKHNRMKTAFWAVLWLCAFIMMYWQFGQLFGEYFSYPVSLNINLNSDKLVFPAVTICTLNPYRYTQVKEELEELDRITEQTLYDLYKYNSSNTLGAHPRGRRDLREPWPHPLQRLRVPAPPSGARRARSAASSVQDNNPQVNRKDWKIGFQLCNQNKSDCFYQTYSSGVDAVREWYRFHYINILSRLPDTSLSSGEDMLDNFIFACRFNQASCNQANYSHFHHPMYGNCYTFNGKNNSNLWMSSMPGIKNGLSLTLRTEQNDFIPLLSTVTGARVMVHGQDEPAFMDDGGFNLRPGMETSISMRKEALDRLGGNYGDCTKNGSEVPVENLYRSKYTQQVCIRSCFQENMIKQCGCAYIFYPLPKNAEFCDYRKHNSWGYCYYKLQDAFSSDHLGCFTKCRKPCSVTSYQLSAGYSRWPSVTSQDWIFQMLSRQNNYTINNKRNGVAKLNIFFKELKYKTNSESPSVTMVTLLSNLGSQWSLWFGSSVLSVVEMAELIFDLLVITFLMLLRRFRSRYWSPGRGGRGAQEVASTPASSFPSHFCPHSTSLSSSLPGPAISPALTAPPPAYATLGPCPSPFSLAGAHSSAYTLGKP
T1 sequence (Q95165 1-641): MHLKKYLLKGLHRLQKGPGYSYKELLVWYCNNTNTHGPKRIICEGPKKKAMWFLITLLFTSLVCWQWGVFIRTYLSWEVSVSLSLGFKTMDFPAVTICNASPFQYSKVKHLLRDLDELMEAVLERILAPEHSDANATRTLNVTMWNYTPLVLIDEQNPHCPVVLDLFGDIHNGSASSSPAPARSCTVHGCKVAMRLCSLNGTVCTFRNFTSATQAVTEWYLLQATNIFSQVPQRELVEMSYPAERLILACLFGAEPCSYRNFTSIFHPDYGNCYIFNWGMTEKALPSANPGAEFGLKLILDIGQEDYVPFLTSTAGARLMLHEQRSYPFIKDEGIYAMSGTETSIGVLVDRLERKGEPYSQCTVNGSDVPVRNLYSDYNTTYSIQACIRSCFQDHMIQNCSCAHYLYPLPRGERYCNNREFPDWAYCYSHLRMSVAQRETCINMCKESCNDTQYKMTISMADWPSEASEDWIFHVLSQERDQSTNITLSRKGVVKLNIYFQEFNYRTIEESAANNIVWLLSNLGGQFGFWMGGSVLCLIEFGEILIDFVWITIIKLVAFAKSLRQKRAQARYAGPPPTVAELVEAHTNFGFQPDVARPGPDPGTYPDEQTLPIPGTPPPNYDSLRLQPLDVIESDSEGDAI
T1 sequence (A0A8I3MKE6 1-646): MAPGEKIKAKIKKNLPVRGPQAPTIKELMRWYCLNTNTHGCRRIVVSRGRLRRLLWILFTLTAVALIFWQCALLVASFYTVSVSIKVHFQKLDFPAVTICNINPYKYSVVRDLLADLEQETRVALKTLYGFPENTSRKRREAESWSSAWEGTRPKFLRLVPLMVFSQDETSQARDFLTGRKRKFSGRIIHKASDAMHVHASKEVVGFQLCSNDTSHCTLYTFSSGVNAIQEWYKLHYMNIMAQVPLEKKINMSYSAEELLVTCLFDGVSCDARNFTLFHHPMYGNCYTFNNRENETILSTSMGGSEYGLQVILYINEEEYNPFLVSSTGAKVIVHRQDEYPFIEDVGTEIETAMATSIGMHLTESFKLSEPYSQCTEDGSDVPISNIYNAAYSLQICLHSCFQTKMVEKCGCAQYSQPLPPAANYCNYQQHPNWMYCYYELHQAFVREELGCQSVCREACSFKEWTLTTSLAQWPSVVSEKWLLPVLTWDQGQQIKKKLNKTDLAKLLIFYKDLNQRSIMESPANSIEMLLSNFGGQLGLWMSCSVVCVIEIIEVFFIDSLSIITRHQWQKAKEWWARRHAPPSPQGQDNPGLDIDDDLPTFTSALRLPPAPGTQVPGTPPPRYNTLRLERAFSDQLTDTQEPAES
Put plainly: Sodium channel (ENaC) blocking activity, short circuit current in airway epithelial monolayers in Ussing chambers. The class given is cell-based. The note with it: canine bronchial epithelium; for Fold Amiloride (PSA4022 = 100): relative potency, PSA4022 = 100, using IC50 from PSA4022 in same run. On the procedure: One assay used to assess mechanism of action and/or potency of the compounds of the present invention involves the determination of lumenal drug inhibition of airway epithelial sodium currents measured under short circuit current (ISC) using airway epithelial monolayers mounted in Ussing chambers. Cells obtained from freshly excised human, dog or sheep airways are seeded onto porous 0.4 micron Snapwell™ Inserts (CoStar), cultured at air-liquid interface (ALI) conditions in hormonally defined media, and assayed for sodium transport activity (ISC in μA/cm^2) while bathed in Krebs Bicarbonate Ringer (KBR) in Ussing chambers. All test drug additions are to the lumenal bath with half-log dose addition protocols (from 1×10^−11 M to 3×10^−5 M), and the cumulative change in ISC (inhibition) recorded. All drugs are prepared in dimethyl sulfoxide as stock solutions at a concentration of 1×10^−2 M and stored at −20° C. Six preparations are typically run in parallel; one preparation per run incorporates a positive control. All data from the voltage clamps are collected via a computer interface and analyzed off-line.
Dose-effect relationships for all compounds are considered and analyzed by the Prism 3.0 program. EC50 values, maximal effective concentrations are calculated and compared to positive controls.
Utilizing the tests set forth above, Table 3 summaries the ENaC blocking ability of some of the amides of this invention when assayed in canine bronchial epithelium.
Utilizing the tests set forth above, Table 4 summaries the ENaC blocking ability of some of the Esters of this invention when assayed in canine bronchial epithelium.

Setting [3] is: 0.12% sodium chloride solution, 0.12% NaCl solution, methanesulfonic acid salts, ambient temperature, read-out: S1 = Solubility in 0.12% NaCl Solution.
Setting [4] is: 0.9% sodium chloride solution (normal saline), 0.9% NaCl solution (normal saline), methanesulfonic acid salts, ambient temperature, read-out: S2 = Solubility in 0.9% NaCl Solution (normal Saline).
Where [5] appears, read: Table 3, read-out: IC50 (nM), Epithelial Sodium Channel Blocking Activity of Selected Amides.
The mark [6] stands for this setting: Table 4, read-out: IC50 (nM), Epithelial Sodium Channel Blocking Activity of Selected Esters.

On to `CN(C)CCCNC(=O)COc1ccc(CCCCNC(=N)NC(=O)c2nc(Cl)c(N)nc2N)cc1` (as salt: methanesulfonate) [PSA 24304, 2-(4-{4-[N′-(3,5-diamino-6-chloropyrazine-2-carbonyl)guanidino]-butyl}phenoxy)-N-(3-dimethylaminopropyl)acetamide dimethanesulfonate], for which the melting point lay within 187 to 190 °C.
For the compound `CS(=O)(=O)O.CS(=O)(=O)O.N=C(NCCCCc1ccc(C(=O)N2CCNCC2)cc1)NC(=O)c1nc(Cl)c(N)nc1N` [PSA23607, N-(3,5-Diamino-6-chloropyrazine-2-carbonyl)-N′-{4-[4-(piperazine-1-carbonyl)phenyl]butyl}guanidine bis-methanesulfonate], the solubility in series [1] (0.12% sodium chloride solution, 0.12% saline solution, read-out: solubility in 0.12% saline solution) is greater than 5000 µg/mL.
In the case of `N=C(NCCCCc1ccc(OCC(N)=O)cc1)NC(=O)c1nc(Cl)c(N)nc1N` [PSA 9714, reference compound], in series [2] (Table 3), the “Fold Amiloride (PSA4022 = 100)” value was determined as 62. Besides, the solubility in series [1] (setting [3]) and in series [1] (setting [4]) was less than 100 µg/mL throughout.
Compound `N=C(NCCCCc1ccc(OCC(=O)N2CCNCC2)cc1)NC(=O)c1nc(Cl)c(N)nc1N` [PSA 19913] showed a melting point of 72 to 74 °C. Also, the IC50 in series [2] (setting [5]) stood at 9 ± 1 nM. Also, the “Fold Amiloride (PSA4022 = 100)” value in series [2] (Table 3) is on record as 98. The solubility in series [1] (setting [3]) is greater than 5000 µg/mL.
The corresponding values for `CN(C)CCNC(=O)COc1ccc(CCCCNC(=N)NC(=O)c2nc(Cl)c(N)nc2N)cc1` [PSA 23185a] are 97 to 99 °C, 14 ± 9 nM, 59 and greater than 5000 µg/mL.
As for `N=C(NCCCCc1ccc(OCC(=O)NCCN(CCO)CCO)cc1)NC(=O)c1nc(Cl)c(N)nc1N` [PSA 23450], the melting point was 87 to 89 °C. Also, the IC50 in series [2] (setting [5]) worked out at 18 nM. For the same compound, in series [2] (Table 3), the “Fold Amiloride (PSA4022 = 100)” value came to 38. Moreover, the solubility in series [1] (setting [3]) was greater than 5000 µg/mL. For the same compound, the solubility in series [1] (setting [4]) is greater than 5000 µg/mL.
Take `N=C(NCCCCc1ccc(OCC(=O)NCCN)cc1)NC(=O)c1nc(Cl)c(N)nc1N` [PSA 23778]: the melting point is 105 to 107 °C (dec.). Besides, the “Fold Amiloride (PSA4022 = 100)” value in series [2] (Table 3) is on record as 146. In series [1] (setting [3]), the solubility was greater than 5000 µg/mL.
`CN(C)CCCNC(=O)COc1ccc(CCCCNC(=N)NC(=O)c2nc(Cl)c(N)nc2N)cc1` [PSA 24304, 2-(4-{4-[N′-(3,5-diamino-6-chloropyrazine-2-carbonyl)guanidino]-butyl}phenoxy)-N-(3-dimethylaminopropyl)acetamide dimethanesulfonate]: in series [2] (setting [5]), the IC50 was determined as 4 ± 2 nM. Further, the “Fold Amiloride (PSA4022 = 100)” value in series [2] (Table 3) was found to be 173. Besides, the solubility in series [1] (setting [3]) is greater than 5000 µg/mL.
Regarding `CN(C)CCCCNC(=O)COc1ccc(CCCCNC(=N)NC(=O)c2nc(Cl)c(N)nc2N)cc1` [PSA 24305], the melting point lay within 188 to 190 °C. In series [2] (setting [5]), the IC50 is 6 ± 5 nM. For the same compound, the “Fold Amiloride (PSA4022 = 100)” value in series [2] (Table 3) amounted to 152. Also, the solubility in series [1] (setting [3]) is greater than 5000 µg/mL. The solubility in series [1] (setting [4]) was greater than 5000 µg/mL.
`CC(C)(C)OC(=O)NCCOC(=O)COc1ccc(CCCCNC(N)=NC(=O)c2nc(Cl)c(N)nc2N)cc1` [PSA 25309, (4-{4-[N′-(3,5-Diamino-6-chloropyrazine-2-carbonyl)guanidino]butyl}phenoxy)acetic acid 2-tert-butoxycarbonylaminoethyl ester] registered a melting point of 80 to 82 °C. The IC50 in series [2] (setting [6]) worked out at 4 nM. Besides, the “Fold Amiloride (PSA4022 = 100)” value in series [2] (Table 4) is listed as 119.
Turning to `N=C(NCCCCc1ccc(OCC(=O)OCCN2CCCCC2)cc1)NC(=O)c1nc(Cl)c(N)nc1N` [PSA 25453, (4-{4-[N′-(3,5-diamino-6-chloropyrazine-2-carbonyl)guanidino]butyl}-phenoxy)acetic acid 2-piperidin-1-yl-ethyl ester], the IC50 in series [2] (setting [6]) is 19 ± 16 nM. Moreover, in series [2] (Table 4), the “Fold Amiloride (PSA4022 = 100)” value was 38.
The corresponding values for `N=C(NCCCCc1ccc(OCC(=O)OCCN)cc1)NC(=O)c1nc(Cl)c(N)nc1N` [PSA 25454, (4-{4-[N′-(3,5-diamino-6-chloropyrazine-2-carbonyl)guanidino]butyl}-phenoxy)acetic acid 2-aminoethyl ester dihydrochloride] are 12 ± 2 nM and 44.
For `N=C(NCCCCc1ccc(OCC(=O)OCC2CCNCC2)cc1)NC(=O)c1nc(Cl)c(N)nc1N` [PSA 25720, (4-{4-[N′-(3,5-diamino-6-chloropyrazine-2-carbonyl)guanidino]butyl}-phenoxy)acetic acid piperidin-4-yl-methyl ester dihydrochloride], in series [2] (setting [6]), the IC50 was 3 nM. In addition, the “Fold Amiloride (PSA4022 = 100)” value in series [2] (Table 4) turned out to be 189.
